Structures are written as SMILES.

The target of assay [1] is C. posadasii Acs1 (Coccidioides posadasii, UniProt C5PGB4). The conditions noted are these: 37 °C.
The target in assay [2] is T1, S. cerevisiae Acs1 (Saccharomyces cerevisiae, UniProt Q01574).
T1 sequence (Q01574 1-713): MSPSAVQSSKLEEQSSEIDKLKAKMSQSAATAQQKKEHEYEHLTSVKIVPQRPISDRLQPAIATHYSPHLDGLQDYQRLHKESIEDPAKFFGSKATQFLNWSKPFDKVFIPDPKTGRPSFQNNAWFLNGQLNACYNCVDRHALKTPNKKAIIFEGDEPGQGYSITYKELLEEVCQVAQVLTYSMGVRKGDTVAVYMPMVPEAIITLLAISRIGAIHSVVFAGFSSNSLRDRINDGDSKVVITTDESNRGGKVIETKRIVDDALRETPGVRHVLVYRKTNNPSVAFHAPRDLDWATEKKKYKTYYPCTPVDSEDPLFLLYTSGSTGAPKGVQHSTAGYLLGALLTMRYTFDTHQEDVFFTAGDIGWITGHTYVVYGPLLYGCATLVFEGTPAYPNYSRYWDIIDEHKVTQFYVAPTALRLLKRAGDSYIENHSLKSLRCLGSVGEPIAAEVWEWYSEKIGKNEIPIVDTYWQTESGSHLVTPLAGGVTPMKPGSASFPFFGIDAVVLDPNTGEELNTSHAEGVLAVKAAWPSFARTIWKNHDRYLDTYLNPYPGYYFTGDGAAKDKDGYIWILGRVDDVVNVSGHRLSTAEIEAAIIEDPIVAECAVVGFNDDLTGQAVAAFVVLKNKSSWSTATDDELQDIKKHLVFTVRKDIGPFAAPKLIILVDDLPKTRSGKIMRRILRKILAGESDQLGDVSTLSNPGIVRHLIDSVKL
Briefly: Coupled continuous pyrophosphate detection assay (EnzChek) of ACS activity. Conditions: 37 °C.

Assay [3] deals with C. immitis Acs1 (Coccidioides immitis, UniProt J3KJC6). Conditions: 37 °C.
Sequence of C. immitis Acs1 (J3KJC6 2-691 limits assumed): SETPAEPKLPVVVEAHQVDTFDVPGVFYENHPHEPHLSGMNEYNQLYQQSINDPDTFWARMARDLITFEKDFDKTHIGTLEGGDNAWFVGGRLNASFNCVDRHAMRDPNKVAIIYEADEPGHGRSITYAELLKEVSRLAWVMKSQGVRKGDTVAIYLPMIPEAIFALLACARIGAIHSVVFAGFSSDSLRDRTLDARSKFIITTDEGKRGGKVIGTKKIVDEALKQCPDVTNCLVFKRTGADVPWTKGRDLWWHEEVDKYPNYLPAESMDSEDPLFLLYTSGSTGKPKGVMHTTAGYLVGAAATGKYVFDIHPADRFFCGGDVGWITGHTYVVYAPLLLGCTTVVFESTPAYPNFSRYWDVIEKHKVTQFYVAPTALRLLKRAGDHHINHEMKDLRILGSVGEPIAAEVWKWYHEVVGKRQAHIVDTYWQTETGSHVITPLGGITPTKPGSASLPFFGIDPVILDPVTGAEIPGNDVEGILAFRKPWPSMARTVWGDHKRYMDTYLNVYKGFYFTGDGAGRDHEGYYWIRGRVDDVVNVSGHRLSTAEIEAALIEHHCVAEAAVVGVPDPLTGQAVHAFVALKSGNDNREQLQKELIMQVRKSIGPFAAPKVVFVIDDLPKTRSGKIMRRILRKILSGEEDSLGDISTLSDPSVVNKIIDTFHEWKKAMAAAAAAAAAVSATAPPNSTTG
Assay [4] has as its target CnAcs1 (Cryptococcus neoformans, UniProt J9VFT1). Description: Coupled continuous pyrophosphate detection assay (EnzChek) of ACS activity.
For assay [5], the target named is T2, A. fumigatus Acs1 (Aspergillus fumigatus, UniProt Q4WQ02).
T2 sequence (Q4WQ02 2-670): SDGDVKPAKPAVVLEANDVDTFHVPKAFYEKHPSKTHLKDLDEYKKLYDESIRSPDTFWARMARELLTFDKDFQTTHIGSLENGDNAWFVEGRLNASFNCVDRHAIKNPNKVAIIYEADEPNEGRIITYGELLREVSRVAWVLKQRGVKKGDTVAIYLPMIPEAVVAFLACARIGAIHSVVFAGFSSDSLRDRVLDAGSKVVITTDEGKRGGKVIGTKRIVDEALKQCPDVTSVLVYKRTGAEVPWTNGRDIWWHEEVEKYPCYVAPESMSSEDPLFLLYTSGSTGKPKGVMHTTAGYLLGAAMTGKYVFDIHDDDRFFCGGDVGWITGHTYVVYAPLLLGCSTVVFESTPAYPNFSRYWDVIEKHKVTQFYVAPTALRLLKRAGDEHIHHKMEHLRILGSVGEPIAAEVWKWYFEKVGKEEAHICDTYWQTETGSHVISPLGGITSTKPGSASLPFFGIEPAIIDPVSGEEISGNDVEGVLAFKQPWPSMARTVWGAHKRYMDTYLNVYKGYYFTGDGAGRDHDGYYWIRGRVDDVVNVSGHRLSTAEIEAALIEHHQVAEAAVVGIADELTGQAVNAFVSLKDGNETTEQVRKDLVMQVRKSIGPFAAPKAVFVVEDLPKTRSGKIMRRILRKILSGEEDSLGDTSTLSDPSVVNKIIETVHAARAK
The description is as above. Conditions: substrate Km; other substrates in excess; 37 °C; ±S.E.M.

Assay [6] addresses C. albicans Acs1 (Candida albicans, UniProt Q8NJN3). The description is as above. The conditions noted are these: 37 °C.

Sequence of CnAcs1 (J9VFT1 entry or part of it): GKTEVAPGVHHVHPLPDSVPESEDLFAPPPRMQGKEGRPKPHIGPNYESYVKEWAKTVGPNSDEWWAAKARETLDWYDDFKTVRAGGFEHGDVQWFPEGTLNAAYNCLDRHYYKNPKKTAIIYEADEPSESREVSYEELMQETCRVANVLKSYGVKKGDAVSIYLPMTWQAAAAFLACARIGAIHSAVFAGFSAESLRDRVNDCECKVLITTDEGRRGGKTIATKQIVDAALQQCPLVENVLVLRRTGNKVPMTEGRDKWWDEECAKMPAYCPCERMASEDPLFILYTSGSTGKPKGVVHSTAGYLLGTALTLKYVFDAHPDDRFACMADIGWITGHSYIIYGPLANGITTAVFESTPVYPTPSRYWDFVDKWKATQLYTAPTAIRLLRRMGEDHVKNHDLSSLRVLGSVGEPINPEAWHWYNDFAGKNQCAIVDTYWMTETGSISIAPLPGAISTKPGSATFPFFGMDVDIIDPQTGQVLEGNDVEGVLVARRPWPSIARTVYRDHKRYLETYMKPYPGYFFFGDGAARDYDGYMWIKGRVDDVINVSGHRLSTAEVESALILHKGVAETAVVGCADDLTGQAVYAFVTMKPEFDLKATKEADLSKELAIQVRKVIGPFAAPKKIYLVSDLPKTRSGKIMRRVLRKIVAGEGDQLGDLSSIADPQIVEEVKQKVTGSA
Sequence of C. albicans Acs1 (Q8NJN3 2-671 limits assumed): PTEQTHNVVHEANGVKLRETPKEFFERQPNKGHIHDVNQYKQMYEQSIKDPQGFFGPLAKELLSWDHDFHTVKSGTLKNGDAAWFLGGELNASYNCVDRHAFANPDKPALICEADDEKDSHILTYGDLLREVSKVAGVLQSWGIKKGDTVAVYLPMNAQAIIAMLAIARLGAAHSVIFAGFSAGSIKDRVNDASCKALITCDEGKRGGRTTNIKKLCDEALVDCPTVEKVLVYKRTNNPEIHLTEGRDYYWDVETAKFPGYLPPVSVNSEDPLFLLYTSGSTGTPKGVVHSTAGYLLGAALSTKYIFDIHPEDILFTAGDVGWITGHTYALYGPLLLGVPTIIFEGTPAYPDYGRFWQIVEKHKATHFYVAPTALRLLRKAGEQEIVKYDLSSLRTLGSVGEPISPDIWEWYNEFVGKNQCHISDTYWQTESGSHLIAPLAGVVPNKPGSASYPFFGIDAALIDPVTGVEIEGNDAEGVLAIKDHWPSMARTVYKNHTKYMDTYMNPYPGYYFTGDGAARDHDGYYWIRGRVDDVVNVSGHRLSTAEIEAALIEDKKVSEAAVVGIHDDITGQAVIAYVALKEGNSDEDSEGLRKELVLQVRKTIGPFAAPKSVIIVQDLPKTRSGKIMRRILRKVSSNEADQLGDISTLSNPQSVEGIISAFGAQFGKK
Sequence of C. posadasii Acs1 (C5PGB4 2-691 limits assumed): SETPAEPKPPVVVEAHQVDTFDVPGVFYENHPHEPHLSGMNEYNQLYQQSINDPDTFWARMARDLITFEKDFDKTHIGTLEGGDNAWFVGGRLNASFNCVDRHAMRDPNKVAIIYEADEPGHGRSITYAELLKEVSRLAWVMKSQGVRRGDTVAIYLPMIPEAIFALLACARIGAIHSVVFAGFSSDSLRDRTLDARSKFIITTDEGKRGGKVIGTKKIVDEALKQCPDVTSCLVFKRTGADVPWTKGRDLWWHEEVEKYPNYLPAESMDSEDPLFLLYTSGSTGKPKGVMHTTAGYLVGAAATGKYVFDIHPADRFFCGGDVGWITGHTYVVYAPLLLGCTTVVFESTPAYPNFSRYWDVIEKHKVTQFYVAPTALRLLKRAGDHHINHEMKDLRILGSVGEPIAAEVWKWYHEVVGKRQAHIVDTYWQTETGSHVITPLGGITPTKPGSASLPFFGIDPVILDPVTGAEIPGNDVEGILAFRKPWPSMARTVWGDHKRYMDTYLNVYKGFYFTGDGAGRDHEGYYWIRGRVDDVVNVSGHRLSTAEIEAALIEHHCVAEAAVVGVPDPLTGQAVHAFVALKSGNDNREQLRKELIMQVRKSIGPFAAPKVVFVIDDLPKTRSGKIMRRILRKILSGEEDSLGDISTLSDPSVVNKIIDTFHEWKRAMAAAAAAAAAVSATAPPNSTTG

Take `CC(=O)O` [acetate, reference compound]: the Km in assay [1] stood at 27 ± 2 µM; in assay [2], 63 ± 13 µM; in assay [3] it was 32 ± 5 µM; in assay [4] (substrate Km, other substrates in excess (ATP 2.5 mM, CoA 1 mM, sodium acetate 0.5 mM), 37 °C, ±S.E.M.) it was 130 ± 40 µM; in assay [5], 18 ± 2 µM; in assay [6] it was 79 ± 7 µM. In assay [4] (alternative acid substrates), the “utilization as substrate for CnAcs1” value is listed as “optimum substrate”. For the same compound, in assay [4] (calculated for substrate binding), the “calculated binding energy ΔG” value is -5.5 kcal/mol.

Source of the values: paper PMC8383264, “Structural Characterization of the Reaction and Substrate Specificity Mechanisms of Pathogenic Fungal Acetyl-CoA Synthetases” (ACS Chemical Biology, 2021).
